Patent US20240109880A1 (Insilico Medicine IP Limited, priority 2021, published 2024)

Molecular target: KAT6A (Homo sapiens (Human), UniProt Q92794)
Test: KAT6A Biochemical Assay (radiometric 384-well, [3H]-Ac-CoA, biotinylated H4(1-30) peptide)
Conditions: 5 nM KAT6A enzyme solution (2×), 60 min reaction at room temperature
Procedure: Inhibition of KAT6A enzymatic activity by test compounds was determined using a radiometric 384-well format assay. A 10-point serial dilution of the test compounds were conducted in DMSO and then a volume of 200 nL was transferred into 384-well assay plate by Echo (Labcyte). 10 μL of 2× enzyme solution (5 nM KAT6A (Active Motif) in assay buffer (50 mM Tris-HCl pH 8.0, 50 mM KCl, 0.1 mM EDTA, 5% glycerol, 1 mM DTT)) was dispensed into assay plate except for low control wells, in which 10 μL of assay buffer was transferred. The plate was incubated at room temperature for 15 min before addition of 10 μL of 2×[^3H]-acetyl coenzyme A (Ac-CoA) and substrate peptide mix solution (500 nM (KAT6A) [^3H]-Ac-CoA (PerkinElmer) and 800 nM (KAT6A) biotinylated H4(1-30) peptide (GL Biochem) in assay buffer) to each well to start reaction. The plate was incubated at room temperature for 60 min (KAT6A), and then the reaction was stopped by adding 10 μL of stop solution (cold Ac-CoA (Cayman) in 1× assay buffer). 25 μL of reaction in each well was transferred to Flashplate (PerkinElmer) and incubated for another 1 hour at room temperature. The plate was read on Microbeta and the inhibition percentage of each compound treated well was calculated based on the equation in h %=(Max−sample)/(Max−Min)*100 where Max is signal from high control wells with enzyme, and Min is signal from low control wells with assay buffer only. The in h % data were further fit in XL-Fit to obtain IC50 values using a 4-parameter logistic (4PL) sigmoidal curve model.

KAT6A, sequence (Q92794 whole entry): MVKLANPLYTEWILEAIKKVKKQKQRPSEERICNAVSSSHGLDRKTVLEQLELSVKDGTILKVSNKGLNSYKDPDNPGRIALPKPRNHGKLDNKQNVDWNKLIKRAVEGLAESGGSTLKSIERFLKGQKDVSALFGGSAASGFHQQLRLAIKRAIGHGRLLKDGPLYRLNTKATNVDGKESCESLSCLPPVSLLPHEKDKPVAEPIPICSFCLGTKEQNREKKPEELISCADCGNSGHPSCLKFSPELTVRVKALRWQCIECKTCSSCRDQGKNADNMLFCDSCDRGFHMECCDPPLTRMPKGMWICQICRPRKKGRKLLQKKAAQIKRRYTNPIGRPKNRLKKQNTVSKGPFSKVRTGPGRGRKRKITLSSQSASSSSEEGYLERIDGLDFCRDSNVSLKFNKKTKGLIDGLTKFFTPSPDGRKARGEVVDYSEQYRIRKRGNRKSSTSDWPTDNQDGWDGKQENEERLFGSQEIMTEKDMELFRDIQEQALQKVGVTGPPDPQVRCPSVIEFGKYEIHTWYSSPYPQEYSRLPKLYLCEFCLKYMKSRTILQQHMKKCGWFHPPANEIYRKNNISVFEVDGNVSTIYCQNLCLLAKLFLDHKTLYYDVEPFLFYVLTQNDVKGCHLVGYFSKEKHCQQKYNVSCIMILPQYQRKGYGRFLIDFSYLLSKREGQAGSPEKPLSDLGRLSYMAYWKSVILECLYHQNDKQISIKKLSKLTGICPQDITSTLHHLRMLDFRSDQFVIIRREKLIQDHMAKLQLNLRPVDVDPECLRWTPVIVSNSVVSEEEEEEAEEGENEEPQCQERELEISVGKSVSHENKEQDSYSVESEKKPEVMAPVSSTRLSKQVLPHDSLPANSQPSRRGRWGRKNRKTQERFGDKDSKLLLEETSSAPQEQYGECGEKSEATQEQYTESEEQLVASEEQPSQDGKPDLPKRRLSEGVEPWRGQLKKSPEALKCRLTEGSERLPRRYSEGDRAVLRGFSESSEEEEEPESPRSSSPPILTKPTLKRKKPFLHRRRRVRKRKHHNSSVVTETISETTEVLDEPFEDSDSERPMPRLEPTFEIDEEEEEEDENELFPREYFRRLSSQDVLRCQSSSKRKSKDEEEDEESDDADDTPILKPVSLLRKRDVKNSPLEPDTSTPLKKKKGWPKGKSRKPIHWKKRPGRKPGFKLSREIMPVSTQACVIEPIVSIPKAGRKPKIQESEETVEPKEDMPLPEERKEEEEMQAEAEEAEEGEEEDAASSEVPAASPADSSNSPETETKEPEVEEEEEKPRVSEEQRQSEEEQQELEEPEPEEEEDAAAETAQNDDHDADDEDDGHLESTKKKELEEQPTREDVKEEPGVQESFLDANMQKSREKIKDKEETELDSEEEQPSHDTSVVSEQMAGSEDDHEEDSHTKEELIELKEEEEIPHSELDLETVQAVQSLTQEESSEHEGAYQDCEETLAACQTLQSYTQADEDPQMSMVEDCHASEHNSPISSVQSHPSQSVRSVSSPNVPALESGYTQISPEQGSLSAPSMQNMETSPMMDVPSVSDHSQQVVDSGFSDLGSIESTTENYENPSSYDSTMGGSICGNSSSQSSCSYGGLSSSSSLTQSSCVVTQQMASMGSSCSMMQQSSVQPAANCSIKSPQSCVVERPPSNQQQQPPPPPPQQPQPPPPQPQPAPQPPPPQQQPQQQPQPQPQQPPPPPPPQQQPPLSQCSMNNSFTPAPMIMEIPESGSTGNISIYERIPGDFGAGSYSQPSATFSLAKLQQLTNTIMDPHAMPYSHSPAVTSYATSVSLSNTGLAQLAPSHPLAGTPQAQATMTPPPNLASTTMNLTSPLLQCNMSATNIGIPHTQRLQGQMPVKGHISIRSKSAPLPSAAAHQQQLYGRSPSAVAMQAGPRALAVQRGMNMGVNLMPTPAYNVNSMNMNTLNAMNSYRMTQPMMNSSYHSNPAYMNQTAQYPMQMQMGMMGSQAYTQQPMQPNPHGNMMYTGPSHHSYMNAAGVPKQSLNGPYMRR

Compound	IC50
COc1cc(C)nc(OC)c1S(=O)(=O)Nc1noc2cc(Cn3cccn3)c3c(c12)OCCC3 [Compound 18, N-(5-((1H-pyrazol-1-yl)methyl)-3,4-dihydro-2H-chromeno [8,7-d]isoxazol-9-yl)-2,4-dimethoxy-6-methylpyridine-3-sulfonamide]	< 10 nM
COc1ccnc(OC)c1S(=O)(=O)Nc1noc2cc(Cn3cccn3)c3c(c12)OCCCC3 [Compound 20, N-(6-((1H-pyrazol-1-yl)methyl)-2,3,4,5-tetrahydrooxepino [3′,2′:5,6]benzo[1,2-d]isoxazol-10-yl)-2,4-dimethoxypyridine-3-sulfonamide]	< 10 nM
COc1cc(C)nc(OC)c1S(=O)(=O)Nc1noc2cc(Cn3cccn3)c3c(c12)OCCCC3 [Compound 21, N-(6-((1H-pyrazol-1-yl)methyl)-2,3,4,5-tetrahydrooxepino [3′,2′:5,6]benzo[1,2-d]isoxazol-10-yl)-2,4-dimethoxy-6-methylpyridine-3-sulfonamide]	< 10 nM
COc1ccccc1S(=O)(=O)Nc1noc2cc(Oc3ccccn3)c3c(c12)OCCC3 [Compound 25, 2-methoxy-N-(5-(pyridin-2-yloxy)-3,4-dihydro-2H-chromeno [8,7-d]isoxazol-9-yl)benzenesulfonamide]	< 10 nM
COc1ccccc1S(=O)(=O)Nc1noc2cc(Oc3ccccn3)c3c(c12)OCC3 [Compound 26, 2-methoxy-N-(4-(pyridin-2-yloxy)-2,3-dihydrobenzofuro[7,6-d]isoxazol-8-yl)benzenesulfonamide]	10 to 100 nM
COc1cccc(OC)c1S(=O)(=O)Nc1noc2cc(Oc3cccnn3)c3c(c12)OCCC3 [Compound 30, 2,6-dimethoxy-N-(5-(pyridazin-3-yloxy)-3,4-dihydro-2H-chromeno[8,7-d]isoxazol-9-yl)benzenesulfonamide]	10 to 100 nM
COc1cccc(OC)c1S(=O)(=O)Nc1noc2cc(Cn3cccn3)cc(OCF)c12 [Compound 31, N-(6-((1H-pyrazol-1-yl)methyl)-4-(fluoromethoxy)benzo [d]isoxazol-3-yl)-2,6-dimethoxybenzenesulfonamide]	< 10 nM
COc1ccnc(OC)c1S(=O)(=O)Nc1noc2cc(Cn3cccn3)c3c(c12)OCC3 [Compound 32, N-(4-((1H-pyrazol-1-yl)methyl)-2,3-dihydrobenzofuro[7,6-d]isoxazol-8-yl)-2,4-dimethoxypyridine-3-sulfonamide]	10 to 100 nM
COc1cccc(OC)c1S(=O)(=O)Nc1noc2cc(Oc3ncccn3)c3c(c12)OCCC3 [Compound 33, 2,6-dimethoxy-N-(5-(pyrimidin-2-yloxy)-3,4-dihydro-2H-chromeno[8,7-d]isoxazol-9-yl)benzenesulfonamide]	10 to 100 nM
COc1cccc(OC)c1S(=O)(=O)Nc1noc2cc(Oc3ncco3)c3c(c12)OCCC3 [Compound 34, 2,6-dimethoxy-N-(5-(oxazol-2-yloxy)-3,4-dihydro-2H-chromeno[8,7-d]isoxazol-9-yl)benzenesulfonamide]	< 10 nM
COc1cccc(OC)c1S(=O)(=O)Nc1noc2cc(Oc3ncccc3C)c3c(c12)OCCC3 [Compound 36, 2,6-dimethoxy-N-(5-((3-methylpyridin-2-yl)oxy)-3,4-dihydro-2H-chromeno[8,7-d]isoxazol-9-yl)benzenesulfonamide]	< 10 nM
COc1cc(C)nc(OC)c1S(=O)(=O)Nc1noc2cc(Cn3cccn3)cc(OCF)c12 [Compound 37]	< 10 nM
COc1cc(C)ncc1S(=O)(=O)Nc1noc2cc(Cn3cccn3)cc(OC)c12 [Compound 38, N-(6-((1H-pyrazol-1-yl)methyl)-4-methoxybenzo[d]isoxazol-3-yl)-4-methoxy-6-methylpyridine-3-sulfonamide]	10 to 1000 nM
COc1cc(C2CC2)nc(OC)c1S(=O)(=O)Nc1noc2cc(Cn3cccn3)cc(OC)c12 [Compound 39, N-(6-((1H-pyrazol-1-yl)methyl)-4-methoxybenzo[d]isoxazol-3-yl)-6-cyclopropyl-2,4-dimethoxypyridine-3-sulfonamide]	10 to 100 nM
COc1cc(C(F)F)nc(OC)c1S(=O)(=O)Nc1noc2cc(Cn3cccn3)cc(OC)c12 [Compound 40, N-(6-((1H-pyrazol-1-yl)methyl)-4-methoxybenzo[d]isoxazol-3-yl)-6-(difluoromethyl)-2,4-dimethoxypyridine-3-sulfonamide]	10 to 1000 nM
COc1cc(C(F)(F)F)nc(OC)c1S(=O)(=O)Nc1noc2cc(Cn3cccn3)cc(OC)c12 [Compound 41, N-(6-((1H-pyrazol-1-yl)methyl)-4-methoxybenzo[d]isoxazol-3-yl)-2,4-dimethoxy-6-(trifluoromethyl)pyridine-3-sulfonamide]	10 to 100 nM
COc1ccnc(OC)c1S(=O)(=O)Nc1noc2cc(Cn3cccn3)c(F)c(OCF)c12 [Compound 42, N-(6-((1H-pyrazol-1-yl)methyl)-5-fluoro-4-(fluoromethoxy)benzo[d]isoxazol-3-yl)-2,4-dimethoxypyridine-3-sulfonamide]	10 to 100 nM
COc1cc(C)nc(OC)c1S(=O)(=O)Nc1noc2cc(Cn3cccn3)c(F)c(OCF)c12 [Compound 43, N-(6-((1H-pyrazol-1-yl)methyl)-5-fluoro-4-(fluoromethoxy)benzo[d]isoxazol-3-yl)-2,4-dimethoxy-6-methylpyridine-3-sulfonamide]	10 to 100 nM
COc1cc(C)nc(OC)c1S(=O)(=O)Nc1noc2cc(Cn3cccn3)c(F)c(OC(F)F)c12 [Compound 44, N-(6-((1H-pyrazol-1-yl)methyl)-4-(difluoromethoxy)-5-fluorobenzo[d]isoxazol-3-yl)-2,4-dimethoxy-6-methylpyridine-3-sulfonamide]	10 to 100 nM
COc1cccc(OC)c1S(=O)(=O)Nc1noc2cc(Cc3ccccn3)cc(OCF)c12 [Compound 45, N-(4-(fluoromethoxy)-6-(pyridin-2-ylmethyl)benzo[d]isoxazol-3-yl)-2,6-dimethoxybenzenesulfonamide]	10 to 100 nM
COc1ccnc(OC)c1S(=O)(=O)Nc1noc2cc(Cn3cccn3)cc(OCF)c12 [Compound 48, N-(6-((1H-pyrazol-1-yl)methyl)-4-(fluoromethoxy)benzo[d]isoxazol-3-yl)-2,4-dimethoxypyridine-3-sulfonamide]	< 10 nM
COc1cc(C2CC2)nc(OC)c1S(=O)(=O)Nc1noc2cc(Cn3cccn3)cc(OCF)c12 [Compound 49, N-(6-((1H-pyrazol-1-yl)methyl)-4-(fluoromethoxy)benzo [d]isoxazol-3-yl)-6-cyclopropyl-2,4-dimethoxypyridine-3-sulfonamide]	10 to 100 nM
COc1cc(C(F)F)nc(OC)c1S(=O)(=O)Nc1noc2cc(Cn3cccn3)cc(OCF)c12 [Compound 50, N-(6-((1H-pyrazol-1-yl)methyl)-4-(fluoromethoxy)benzo[d]isoxazol-3-yl)-6-(difluoromethyl)-2,4-dimethoxypyridine-3-sulfonamide]	10 to 1000 nM
COc1cc(C(F)(F)F)nc(OC)c1S(=O)(=O)Nc1noc2cc(Cn3cccn3)cc(OCF)c12 [Compound 51, N-(6-((1H-pyrazol-1-yl)methyl)-4-(fluoromethoxy)benzo[d]isoxazol-3-yl)-2,4-dimethoxy-6-(trifluoromethyl)pyridine-3-sulfonamide]	< 10 nM
CCc1cc(OC)c(S(=O)(=O)Nc2noc3cc(Cn4cccn4)cc(OCF)c23)c(OC)n1 [Compound 52, N-(6-((1H-pyrazol-1-yl)methyl)-4-(fluoromethoxy)benzo[d]isoxazol-3-yl)-6-ethyl-2,4-dimethoxypyridine-3-sulfonamide]	10 to 100 nM
CC#Cc1cc(OC)c(S(=O)(=O)Nc2noc3cc(Cn4cccn4)cc(OCF)c23)c(OC)n1 [Compound 53, N-(6-((1H-pyrazol-1-yl)methyl)-4-(fluoromethoxy)benzo[d]isoxazol-3-yl)-2,4-dimethoxy-6-(prop-1-yn-1-yl)pyridine-3-sulfonamide]	10 to 100 nM
C#Cc1cc(OC)c(S(=O)(=O)Nc2noc3cc(Cn4cccn4)cc(OCF)c23)c(OC)n1 [Compound 54, N-(6-((1H-pyrazol-1-yl)methyl)-4-(fluoromethoxy)benzo[d]isoxazol-3-yl)-6-ethynyl-2,4-dimethoxypyridine-3-sulfonamide]	< 10 nM
COc1cccc(OC)c1S(=O)(=O)Nc1noc2cc(Cc3nccs3)cc(OCF)c12 [Compound 65, N-(4-(fluoromethoxy)-6-(thiazol-2-ylmethyl)benzo[d]isoxazol-3-yl)-2,6-dimethoxybenzenesulfonamide]	< 10 nM
COc1cc(C)nc(OC)c1S(=O)(=O)Nc1noc2cc(Cn3cccn3)c3c(c12)OCC1CC31 (centres unmarked) [Compound 69, N-(7-((1H-pyrazol-1-yl)methyl)-5,5a,6,6a-tetrahydrocyclopropa[3,4]chromeno[8,7-d]isoxazol-3-yl)-2,4-dimethoxy-6-methylpyridine-3-sulfonamide]	< 10 nM
